Values after ≈ are worked out from the molar mass of the structure shown. Active and inactive are the calls of the source. No cut-off for these calls is given here.
How the values were obtained:
[1] = system: Bacillus cereus; experiment: Minimal inhibitory concentration against Bacillus cereus (CECT 148) strain; Not active; format: functional, organism-based
[2] = system: Bacillus subtilis; experiment: Minimal inhibitory concentration against Bacillus subtilis (CECT 498) strain; Not active; format: functional, organism-based
[3] = system: Escherichia coli; experiment: Minimal inhibitory concentration against Escherichia coli (CECT 101) strain; Not active; format: functional, organism-based
[4] = system: Candida albicans; experiment: Minimal inhibitory concentration against Candida albicans (CECT 1394) strain; Not active; format: functional, organism-based
[5] = system: Pseudomonas aeruginosa; experiment: Minimal inhibitory concentration against Pseudomonas aeruginosa (CECT 108) strain; Not active; format: functional, organism-based
[6] = system: Bacillus cereus; experiment: Minimal inhibitory concentration against Bacillus cereus; format: functional
[7] = system: Bacillus cereus; experiment: inhibition of Bacillus cereus was measured by zone diameter; format: functional
[8] = system: Pseudomonas aeruginosa; experiment: Minimal inhibitory concentration against Pseudomonas aeruginosa; Not active; format: functional, organism-based
[9] = system: Escherichia coli; experiment: Minimal inhibitory concentration against Escherichia coli; Not active; format: functional, organism-based
[10] = system: Bacillus subtilis; experiment: Minimal inhibitory concentration against Bacillus subtilis; format: functional
[11] = system: Bacillus subtilis; experiment: inhibition of Bacillus subtilis was measured by zone diameter; format: functional
[12] = system: Candida albicans; experiment: Minimal inhibitory concentration against Candida albicans; Not active; format: functional, organism-based
[13] = system: Candida albicans; experiment: inhibition of Candida albicans was measured by zone diameter; format: functional
[14] = system: Pseudomonas aeruginosa; experiment: inhibition of Pseudomonas aeruginosa was measured by zone diameter; format: functional
[15] = system: Candida albicans; experiment: Minimal inhibitory concentration against Candida albicans; format: functional
[16] = system: Pseudomonas aeruginosa; experiment: Minimal inhibitory concentration against Pseudomonas aeruginosa; format: functional
[17] = system: Escherichia coli; experiment: Minimal inhibitory concentration against Escherichia coli; format: functional
[18] = system: Escherichia coli; experiment: Diameter of the inhibition zone of Escherichia coli upon administration of compound; format: functional
[19] = system: Escherichia coli; experiment: inhibition of Escherichia coli was measured by zone diameter; format: functional

MIC [1]	MIC [2]	MIC [3]	MIC [4]	MIC [5]	MIC [6]	MIC [8]	MIC [9]	MIC [10]	MIC [12]	MIC [15]	MIC [16]	MIC [17]	Compound	Inhibition [7]	Inhibition [11]	Inhibition [13]	Inhibition [14]	Inhibition [18]	Inhibition [19]
inactive	inactive	inactive	inactive	inactive	–	–	–	–	–	–	–	–	Cc1ccc2sc(C)c(C)c2c1	–	–	–	–	–	–
–	–	–	–	–	3.13 µg/mL (≈ 9.69 µM)	–	–	–	–	–	–	–	O=C(N[C@H](CO)[C@H](O)c1ccc([N+](=O)[O-])cc1)C(Cl)Cl [CHLORAMPHENICOL]	8 mm	–	–	–	–	–
–	–	–	–	–	200 µg/mL (≈ 701 µM)	inactive	inactive	200 µg/mL (≈ 701 µM)	–	–	–	–	Cc1cc2c(C)c(C)sc2cc1Nc1ccc(F)cc1	12 mm	10 mm	–	–	–	–
–	–	–	–	–	200 µg/mL (≈ 701 µM)	–	inactive	50 µg/mL (≈ 175 µM)	–	–	–	–	Cc1cc2c(C)c(C)sc2cc1Nc1ccccc1F	9 mm	8 mm	–	–	–	–
–	–	–	–	–	1000 µg/mL (≈ 3920 µM)	inactive	inactive	500 µg/mL (≈ 1960 µM)	inactive	–	–	–	Cc1cc2c(C)c(C)sc2cc1Br	12 mm	18 mm	–	–	–	–
–	–	–	–	–	200 µg/mL (≈ 611 µM)	–	inactive	200 µg/mL (≈ 611 µM)	–	25 µg/mL (≈ 76.3 µM)	1000 µg/mL (≈ 3050 µM)	–	COc1ccc(Nc2cc3sc(C)c(C)c3cc2C)cc1OC	24 mm	10 mm	8 mm	10 mm	–	–
–	–	–	–	–	100 µg/mL (≈ 336 µM)	–	–	50 µg/mL (≈ 168 µM)	–	12.5 µg/mL (≈ 42 µM)	1000 µg/mL (≈ 3360 µM)	1000 µg/mL (≈ 3360 µM)	COc1ccc(Nc2cc3sc(C)c(C)c3cc2C)cc1	4 mm	19 mm	6 mm	8 mm	4 mm	–
–	–	–	–	–	500 µg/mL (≈ 2610 µM)	inactive	inactive	500 µg/mL (≈ 2610 µM)	–	1000 µg/mL (≈ 5230 µM)	–	–	Cc1cc2c(C)c(C)sc2cc1N	10 mm	17 mm	13 mm	–	–	–
–	–	–	–	–	200 µg/mL (≈ 748 µM)	–	–	200 µg/mL (≈ 748 µM)	–	–	200 µg/mL (≈ 748 µM)	200 µg/mL (≈ 748 µM)	Cc1cc2c(C)c(C)sc2cc1Nc1ccccc1	18 mm	8 mm	–	16 mm	4 mm	–

Compound	MIC [1]	MIC [2]	MIC [3]	MIC [4]	MIC [5]	MIC [6]	MIC [8]	MIC [9]	MIC [10]	MIC [12]	MIC [15]	MIC [16]	MIC [17]	Inhibition [7]	Inhibition [11]	Inhibition [13]	Inhibition [14]	Inhibition [18]	Inhibition [19]
CC1(C)S[C@@H]2[C@H](NC(=O)[C@H](N)c3ccccc3)C(=O)N2[C@H]1C(=O)O [AMPICILLIN]	–	–	–	–	–	3.13 µg/mL (≈ 8.96 µM)	–	–	12.5 µg/mL (≈ 35.8 µM)	–	–	6.25 µg/mL (≈ 17.9 µM)	6.25 µg/mL (≈ 17.9 µM)	13 mm	10 mm	–	12 mm	–	15 mm

— ChEMBL document CHEMBL1138653, “Screening of antimicrobial activity of diarylamines in the 2,3,5-trimethylbenzo[b]thiophene series: a structure-activity evaluation study” (2004)
